According to ChEMBL document CHEMBL4270495, “Oleanane-, ursane-, and quinone methide friedelane-type triterpenoid derivatives: Recent advances in cancer treatment” (Eur J Med Chem, 2017):
pIC50: −log10 of the molar value.

Tests used:
[1] = system: HepG2; assay: Cytotoxicity in human HepG2 cells assessed as reduction in cell viability incubated for 24 hrs by MTT assay; type: functional, cell-based; details: HepG2, 24 h
[2] = Cytotoxicity in human HELF cells assessed as reduction in cell viability incubated for 24 hrs by MTT assay; type: cell-based
[3] = system: HeLa; assay: Cytotoxicity in human HeLa cells assessed as reduction in cell viability incubated for 24 hrs by MTT assay; type: functional, cell-based
[4] = system: HeLa; assay: Cytotoxicity in human HeLa cells assessed as reduction in cell viability incubated for 72 hrs by MTT assay; type: functional, cell-based
[5] = system: Bel-7402; assay: Cytotoxicity in human Bel7402 cells assessed as reduction in cell viability incubated for 72 hrs by MTT assay; type: functional, cell-based; details: Bel-7402, 72 h
[6] = system: BGC-823; assay: Cytotoxicity in human BGC823 cells assessed as reduction in cell viability incubated for 72 hrs by MTT assay; type: functional, cell-based; details: BGC-823, 72 h
[7] = system: HT-29; assay: Cytotoxicity in human HT-29 cells assessed as reduction in cell viability incubated for 72 hrs by MTT assay; type: functional, cell-based; details: HT-29, 72 h
[8] = system: 4T1; assay: Cytotoxicity in mouse 4T1 cells assessed as reduction in cell viability incubated for 96 hrs by SRB assay; type: functional, cell-based; details: 4T1, 96 h
[9] = system: HCT-116; assay: Cytotoxicity in human HCT116 cells assessed as reduction in cell viability incubated for 96 hrs by SRB assay; type: functional, cell-based; details: HCT-116, 96 h
[10] = system: DU-145; assay: Cytotoxicity in human DU145 cells assessed as reduction in cell viability incubated for 96 hrs by SRB assay; type: functional, cell-based; details: DU-145, 96 h
[11] = system: PC-3; assay: Cytotoxicity in human PC3 cells assessed as reduction in cell viability incubated for 96 hrs by SRB assay; type: functional, cell-based; details: PC-3, 96 h
[12] = system: MDA-MB-231; assay: Cytotoxicity in human MDA-MB-231 cells assessed as reduction in cell viability incubated for 96 hrs by SRB assay; type: functional, cell-based; details: MDA-MB-231, 96 h
[13] = system: HCT-8; assay: Cytotoxicity in human HCT8 cells assessed as reduction in cell viability incubated for 96 hrs by SRB assay; type: functional, cell-based; details: HCT-8, 96 h
[14] = system: HT-29; assay: Cytotoxicity in human HT-29 cells assessed as reduction in cell viability incubated for 96 hrs by SRB assay; type: functional, cell-based; details: HT-29, 96 h
[15] = system: CT26; assay: Cytotoxicity in mouse CT26 cells assessed as reduction in cell viability incubated for 96 hrs by SRB assay; type: functional, cell-based; details: CT26, 96 h
[16] = system: MDA-MB-231; assay: Cytotoxicity in human MDA-MB-231 cells assessed as reduction in cell viability incubated for 48 hrs by SRB assay; type: functional; details: MDA-MB-231, 48 h
[17] = system: MCF7; assay: Cytotoxicity in human MCF7 cells assessed as reduction in cell viability incubated for 48 hrs by SRB assay; type: functional, cell-based; details: MCF7, 48 h

SMILES | pIC50 [8] | pIC50 [9] | pIC50 [10] | pIC50 [11] | pIC50 [12] | pIC50 [13] | pIC50 [14] | pIC50 [15] | further results
CC(=O)O[C@H]1CC[C@]2(C)[C@H]3CC=C4[C@@H]5[C@@H](C)[C@H](C)CC[C@]5(C(=O)N5CCNCC5)CC[C@@]4(C)[C@]3(C)CC[C@H]2C1(C)C |  |  |  |  |  |  |  |  | pIC50 [1]: 5.32; pIC50 [2]: 5.04; pIC50 [3]: 5.15
Cc1nc(C)c(COC(=O)[C@]23CCC(C)(C)C[C@H]2C2=CC[C@@H]4[C@@]5(C)CC[C@H](O)C(C)(C)[C@@H]5CC[C@@]4(C)[C@]2(C)CC3)nc1C |  |  |  |  |  |  |  |  | pIC50 [4]: 4.54; pIC50 [5]: 5.20; pIC50 [6]: < 4.52; pIC50 [7]: 4.53
COC(=O)[C@@]1(C)CC[C@]2(C)CC[C@]3(C)C(=CC(=O)[C@@H]4[C@@]5(C)Cc6cn(C(=O)C7CCCNC7)nc6C(C)(C)[C@@H]5CC[C@]43C)[C@H]2C1 (stereo partly specified) | 5.01 | 4.66 | 4.66 | 4.64 | 4.62 | 4.62 | 4.66 | 4.62 | 
C[C@H]1[C@H](C)CC[C@]2(C(=O)OCCCn3cc(COC(=O)[C@]45CC[C@@H](C)[C@H](C)[C@@H]4C4=CC[C@@H]6[C@@]7(C)CC[C@H](O)[C@](C)(CO)[C@@H]7CC[C@]6(C)[C@]4(C)CC5)cn3)CC[C@]3(C)C(=CC[C@@H]4[C@@]5(C)CC[C@H](O)C(C)(C)[C@@H]5CC[C@]43C)[C@H]12 |  |  |  |  |  |  |  |  | GI50 [16]: 4.5 µM; GI50 [17]: 12.1 µM
COC(=O)[C@@]1(C)CC[C@]2(C)CC[C@]3(C)C(=CC(=O)[C@@H]4[C@@]5(C)Cc6cn(S(C)(=O)=O)nc6C(C)(C)[C@@H]5CC[C@]43C)[C@H]2C1 | 4.90 | 5.06 | < 4.30 | 4.72 | 4.54 | 4.61 | 4.73 | 4.82 | 
COC(=O)[C@@]1(C)CC[C@]2(C)CC[C@]3(C)C(=CC(=O)[C@@H]4[C@@]5(C)Cc6cn(C(=O)CCCC7CCNCC7)nc6C(C)(C)[C@@H]5CC[C@]43C)[C@H]2C1 | 5.22 | 5.16 | 5.12 | 5.28 | 5.01 | 4.93 | 5.06 | 5.09 | 
COC(=O)[C@@]1(C)CC[C@]2(C)CC[C@]3(C)C(=CC(=O)[C@@H]4[C@@]5(C)Cc6c(n[nH]c6C(F)(F)F)C(C)(C)[C@@H]5CC[C@]43C)[C@H]2C1 | 4.81 | 4.92 | 4.47 | 4.70 | 4.56 | 4.70 | 4.56 | 4.66 | 
C[C@H]1[C@H](C)CC[C@]2(C(=O)N3CCNCC3)CC[C@]3(C)C(=CC[C@@H]4[C@@]5(C)CC[C@H](O)C(C)(C)[C@@H]5CC[C@]43C)[C@H]12 |  |  |  |  |  |  |  |  | pIC50 [1]: 5.29; pIC50 [2]: 4.90; pIC50 [3]: 4.84
C[C@H]1[C@H](C)CC[C@]2(C(=O)OCCCn3cc(COC(=O)[C@]45CC[C@@H](C)[C@H](C)[C@@H]4C4=CC[C@@H]6[C@@]7(C)C[C@H](O)[C@H](O)[C@](C)(CO)[C@@H]7CC[C@]6(C)[C@]4(C)CC5)cn3)CC[C@]3(C)C(=CC[C@@H]4[C@@]5(C)CC[C@H](O)C(C)(C)[C@@H]5CC[C@]43C)[C@H]12 |  |  |  |  |  |  |  |  | GI50 [16]: 7.4 µM; GI50 [17]: 12.8 µM
C[C@H]1[C@H](C)CC[C@]2(C(=O)NCCCCCCCCN)CC[C@]3(C)C(=CC[C@@H]4[C@@]5(C)CC[C@H](O)C(C)(C)[C@@H]5CC[C@]43C)[C@H]12 |  |  |  |  |  |  |  |  | pIC50 [1]: 4.57; pIC50 [2]: 4.40; pIC50 [3]: 4.77
COC(=O)[C@@]1(C)CC[C@]2(C)CC[C@]3(C)C(=CC(=O)[C@@H]4[C@@]5(C)Cc6cn(OC(C)=O)nc6C(C)(C)[C@@H]5CC[C@]43C)[C@H]2C1 | 4.70 | 4.85 | 4.44 | 4.59 | 4.49 | 4.53 | 4.51 | 4.48 | 
COC(=O)[C@@]1(C)CC[C@]2(C)CC[C@]3(C)C(=CC(=O)[C@@H]4[C@@]5(C)Cc6cn(C(=O)CC7CCNCC7)nc6C(C)(C)[C@@H]5CC[C@]43C)[C@H]2C1 | 5.24 | 4.92 | 4.88 | 4.93 | 5.00 | 5.05 | 4.92 | 5.01 | 
C[C@H]1[C@H](C)CC[C@]2(C(=O)OCCCn3cc(COC(=O)[C@]45CC[C@@H](C)[C@H](C)[C@@H]4C4=CC[C@@H]6[C@@]7(C)CC[C@H](O)C(C)(C)[C@@H]7CC[C@]6(C)[C@]4(C)CC5)cn3)CC[C@]3(C)C(=CC[C@@H]4[C@@]5(C)CC[C@H](O)C(C)(C)[C@@H]5CC[C@]43C)[C@H]12 |  |  |  |  |  |  |  |  | GI50 [16]: 3.8 µM; GI50 [17]: 12.7 µM
COC(=O)[C@@]1(C)CC[C@]2(C)CC[C@]3(C)C(=CC(=O)[C@@H]4[C@@]5(C)Cc6cn(C(=O)C7CCNCC7)nc6C(C)(C)[C@@H]5CC[C@]43C)[C@H]2C1 | 5.27 | 4.63 | 4.68 | 4.65 | 4.72 | 4.65 | 4.60 | 4.67 | 
CCOC(=O)c1[nH]nc2c1C[C@]1(C)[C@H]3C(=O)C=C4[C@H]5C[C@@](C)(C(=O)OCc6ccccc6)CC[C@]5(C)CC[C@@]4(C)[C@]3(C)CC[C@H]1C2(C)C | 5.24 | 5.09 | 4.62 | 4.71 | 4.78 | 5.00 | 4.90 | 4.75 | 
C=C(C)[C@@H]1CC[C@]2(C(=O)OCc3cnn(CCCOC(=O)[C@]45CC[C@@H](C)[C@H](C)[C@H]4C4=CC[C@@H]6[C@@]7(C)CC[C@H](O)C(C)(C)[C@@H]7CC[C@@]6(C)[C@]4(C)CC5)c3)CC[C@]3(C)[C@H](CC[C@@H]4[C@@]5(C)CC[C@H](O)C(C)(C)[C@@H]5CC[C@]43C)[C@@H]12 |  |  |  |  |  |  |  |  | GI50 [16]: 1.4 µM; GI50 [17]: 14.4 µM
COC(=O)[C@@]1(C)CC[C@]2(C)CC[C@]3(C)C(=CC(=O)[C@@H]4[C@@]5(C)Cc6c[nH]nc6C(C)(C)[C@@H]5CC[C@]43C)[C@H]2C1 | 4.83 | 4.88 | 4.52 | 4.58 | 4.48 | 4.50 | 4.50 | 4.58 | 
COC(=O)[C@@]1(C)CC[C@]2(C)CC[C@]3(C)C(=CC(=O)[C@@H]4[C@@]5(C)Cc6cn(C(=O)CCC7CCNCC7)nc6C(C)(C)[C@@H]5CC[C@]43C)[C@H]2C1 | 5.24 | 5.20 | 4.86 | 4.92 | 5.02 | 4.87 | 4.90 | 4.89 | 
C[C@H]1[C@H](C)CC[C@]2(C(=O)OCCCn3cc(COC(=O)[C@]45CC[C@@H](C)[C@H](C)[C@@H]4C4=CC[C@@H]6[C@@]7(C)C[C@H](O)[C@H](O)C(C)(C)[C@@H]7CC[C@]6(C)[C@]4(C)CC5)cn3)CC[C@]3(C)C(=CC[C@@H]4[C@@]5(C)CC[C@H](O)C(C)(C)[C@@H]5CC[C@]43C)[C@H]12 |  |  |  |  |  |  |  |  | GI50 [16]: 4.7 µM; GI50 [17]: 12 µM
CC(=O)O[C@H]1CC[C@]2(C)[C@H]3CC=C4[C@@H]5[C@@H](C)[C@H](C)CC[C@]5(C(=O)N5CCNCC5C)CC[C@@]4(C)[C@]3(C)CC[C@H]2C1(C)C (stereo partly specified) |  |  |  |  |  |  |  |  | pIC50 [1]: 5.28; pIC50 [2]: 4.83; pIC50 [3]: 5.20
CC(=O)O[C@H]1CC[C@]2(C)[C@H]3CC=C4[C@@H]5[C@@H](C)[C@H](C)CC[C@]5(C(=O)NCCCCCCCCN)CC[C@@]4(C)[C@]3(C)CC[C@H]2C1(C)C |  |  |  |  |  |  |  |  | pIC50 [1]: 4.76; pIC50 [2]: 4.44; pIC50 [3]: 5.07
CC1(C)c2n[nH]cc2C[C@]2(C)[C@H]3C(=O)C=C4[C@H]5C[C@@](C)(C(=O)OCc6ccccc6)CC[C@]5(C)CC[C@@]4(C)[C@]3(C)CC[C@@H]12 | 5.20 | 5.13 | 4.72 | 4.91 | 4.74 | 4.88 | 4.82 | 4.70 | 
C=C(C)[C@@H]1CC[C@]2(C(=O)O)CC[C@]3(C)[C@H](CC[C@@H]4[C@@]5(C)CC[C@H](O)C(C)(C)[C@@H]5CC[C@]43C)[C@@H]12 [BETULINIC ACID] |  |  |  |  |  |  |  |  | GI50 [16]: 22.9 µM; GI50 [17]: 11.3 µM
C[C@H]1[C@H](C)CC[C@]2(C(=O)O)CC[C@]3(C)C(=CC[C@@H]4[C@@]5(C)C[C@@H](O)[C@H](O)C(C)(C)[C@@H]5CC[C@]43C)[C@H]12 [COROSOLIC ACID] |  |  |  |  |  |  |  |  | GI50 [16]: 15.3 µM; GI50 [17]: 18.5 µM
